The text below walks through data of BindingDB's records for doi:10.1158/1535-7163.MCT-06-0397 (Loma Linda University, 2007).

pIC50: −log10 of the molar value.

In this assay the target is Serine/threonine-protein kinase pim-1 (Homo sapiens, UniProt P11309). Put plainly: Solid-Phase ELISA Kinase Assay. The following applies: pH 7; 30 °C. The protocol: The 96-well flat-bottomed plates were coated with recombinant GST-BAD. After the plates were blocked, the reaction buffer containing test compound and recombinant GST-PIM1 kinase were added to each well. Phosphorylated GST-BAD was detected by an ELISA reaction. The level of phosphorylated GST-BAD present was proportional to the absorbance at 450 nm. Curve fitting and enzyme analyses were done using GraphPad Prism version 4.00 (GraphPad Software, San Diego, CA).
Serine/threonine-protein kinase pim-1, sequence (P11309 whole entry): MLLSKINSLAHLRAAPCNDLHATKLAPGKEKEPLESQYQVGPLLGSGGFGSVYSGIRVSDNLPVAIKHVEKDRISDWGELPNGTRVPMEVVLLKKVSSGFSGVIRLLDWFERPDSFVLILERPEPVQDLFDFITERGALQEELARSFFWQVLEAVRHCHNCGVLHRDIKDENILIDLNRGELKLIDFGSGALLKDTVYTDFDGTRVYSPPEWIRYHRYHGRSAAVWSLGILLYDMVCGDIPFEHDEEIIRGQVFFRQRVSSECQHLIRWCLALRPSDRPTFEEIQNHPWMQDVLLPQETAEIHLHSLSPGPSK
With `O=c1c(O)c(-c2cc(O)c(O)c(O)c2)oc2cc(O)cc(O)c12`, the negative-log IC50 (pIC50) was 6.11.

The compound `O=c1c(O)c(-c2ccc(O)c(O)c2)oc2c(O)c(O)cc(O)c12` had a pIC50 of 6.37. Compared with the last compound, the pIC50 is 0.26 log units higher.

For the compound `O=c1cc(-c2ccc(O)cc2)oc2c(O)c(O)ccc12`, the pIC50 is 4.66.

`O=C1C[C@@H](c2ccccc2)Oc2cc(O)cc(O)c21` gave a pIC50 of 3.97.

The compound `O=c1c(O)c(-c2ccc(O)cc2)oc2cc(O)cc(O)c12` gave a pIC50 of 5.89.

`O=c1c(O)c(-c2ccc(O)cc2O)oc2cc(O)cc(O)c12` [2-(2,4-dihydroxyphenyl)-3,5,7-trihydroxychromen-4-one] gave a pIC50 of 5.57.

On to `O=c1c(O)c(-c2ccc(O)cc2O)oc2ccc(O)cc12` [2-(2,4-dihydroxyphenyl)-3,6-dihydroxy-4H-chromen-4-one], for which the pIC50 was 5.08.

Turning to `O=c1c(O)c(-c2ccc(O)c(O)c2)oc2cc(O)ccc12` [2-(3,4-dihydroxyphenyl)-3,7-dihydroxy-chromen-4-one], the pIC50 was 6.07.

`O=c1cc(-c2ccc(O)c(O)c2)oc2cc(O)cc(O)c12` [2-(3,4-dihydroxyphenyl)-5,7-dihydroxy-4H-chromen-4-one] had a pIC50 of 5.80.

In the case of `O=c1c(O)c(-c2ccc(O)cc2)oc2cc(O)ccc12` [3,7-dihydroxy-2-(4-hydroxyphenyl)-4H-chromen-4-one], the pIC50 was 6.01.

Take `O=c1c(O)c(-c2ccccc2)oc2cc(O)ccc12` [3,7-dihydroxy-2-phenyl-4H-chromen-4-one]: the pIC50 was 5.34.

Turning to `O=c1cc(-c2ccccc2)oc2cc(O)cc(O)c12` [5,7-dihydroxy-2-phenyl-4H-chromen-4-one], the pIC50 is 4.82.

The compound `O=c1cc(-c2ccccc2)oc2cc(O)ccc12` [7-Hydroxy-flavone, 5a] had a pIC50 of 4.85.

The compound `O=c1cc(-c2cc(O)c(O)c(O)c2)oc2cc(O)ccc12` [7-hydroxy-2-(3,4,5-trihydroxyphenyl)-4H-chromen-4-one] gave a pIC50 of 5.11.

Turning to `O=c1cc(-c2cccc(O)c2)oc2cc(O)ccc12` [7-hydroxy-2-(3-hydroxyphenyl)-4H-chromen-4-one], the negative logarithm of the IC50 (pIC50) was 5.34.

In turn, `O=C1C[C@H](c2ccccc2)Oc2cc(O)cc(O)c21` [(2R)-5,7-dihydroxy-2-phenyl-3,4-dihydro-2H-1-benzopyran-4-one] gave a negative logarithm of the IC50 (pIC50) of 4.22.

For `CC(C)=CCc1c(O)cc(O)c2c1O[C@H](c1ccccc1)CC2=O` [(2S)-5,7-dihydroxy-8-(3-methylbut-2-en-1-yl)-2-phenyl-3,4-dihydro-2H-1-benzopyran-4-one], the negative-log IC50 (pIC50) is 4.90.

As for `O=c1cc(-c2ccc(O)cc2)oc2cc(O)cc(O)c12` [Naringenin, 18], the pIC50 was 6.03.

For orientation: pIC50 means the negative decadic logarithm of the IC50, by convention in mol/L. Read a low pIC50 as a large IC50.
